# The source made the active and inactive calls. The rule behind the calls is not given here.
# How the values were obtained:
# [1] = target: T1, Cyclin-dependent kinase 9 (Homo sapiens, UniProt P50750); assay: Induction of HyT-mediated degradation of CDK9 in human 22Rv1 cells at 0.3 to 3 uM incubated for 24 hrs by immunoblot analysis; assay type: cell-based; details: dose 0.3-3 µM
# [2] = target: T2, Cyclin-T1 (Homo sapiens, UniProt O60563); assay: Induction of HyT-mediated degradation of Cyclin T1 in human 22Rv1 cells at 0.3 to 3 uM incubated for 24 hrs by immunoblot analysis; assay type: cell-based; details: dose 0.3-3 µM
# T2 sequence (O60563 whole entry): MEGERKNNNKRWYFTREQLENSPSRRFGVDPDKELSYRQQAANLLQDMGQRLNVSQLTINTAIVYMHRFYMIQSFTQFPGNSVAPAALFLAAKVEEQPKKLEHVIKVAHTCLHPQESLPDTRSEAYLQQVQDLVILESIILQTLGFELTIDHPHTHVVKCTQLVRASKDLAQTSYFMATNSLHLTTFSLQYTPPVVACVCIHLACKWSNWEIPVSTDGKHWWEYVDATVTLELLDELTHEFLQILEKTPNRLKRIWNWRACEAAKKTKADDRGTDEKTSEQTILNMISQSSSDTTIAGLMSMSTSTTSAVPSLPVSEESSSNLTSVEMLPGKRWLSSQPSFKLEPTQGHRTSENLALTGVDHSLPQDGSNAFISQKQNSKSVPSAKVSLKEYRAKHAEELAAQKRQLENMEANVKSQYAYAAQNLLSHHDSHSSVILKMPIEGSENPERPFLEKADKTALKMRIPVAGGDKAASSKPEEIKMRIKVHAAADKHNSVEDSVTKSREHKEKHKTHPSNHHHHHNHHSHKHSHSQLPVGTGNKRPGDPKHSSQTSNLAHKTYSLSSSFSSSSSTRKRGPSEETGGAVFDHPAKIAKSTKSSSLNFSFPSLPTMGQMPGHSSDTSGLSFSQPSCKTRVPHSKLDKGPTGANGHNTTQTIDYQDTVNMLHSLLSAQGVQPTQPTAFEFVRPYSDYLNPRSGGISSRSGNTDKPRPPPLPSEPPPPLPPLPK
# [3] = target: T2, Cyclin-T1; assay: Induction of HyT-mediated degradation of Cyclin T1 in human 22Rv1 cells incubated for 24 hrs by immunoblot analysis; assay type: cell-based
# [4] = target: Cyclin-T2 (Homo sapiens) (UniProt O60583); assay: Induction of HyT-mediated degradation of cyclin T2 in human 22Rv1 cells assessed as reduction in cyclin T2 level at 3 to 6 uM incubated for 24 hrs by immunoblot analysis; assay type: cell-based; details: dose 3-6 µM
# Cyclin-T2 (Homo sapiens), sequence (O60583 whole entry): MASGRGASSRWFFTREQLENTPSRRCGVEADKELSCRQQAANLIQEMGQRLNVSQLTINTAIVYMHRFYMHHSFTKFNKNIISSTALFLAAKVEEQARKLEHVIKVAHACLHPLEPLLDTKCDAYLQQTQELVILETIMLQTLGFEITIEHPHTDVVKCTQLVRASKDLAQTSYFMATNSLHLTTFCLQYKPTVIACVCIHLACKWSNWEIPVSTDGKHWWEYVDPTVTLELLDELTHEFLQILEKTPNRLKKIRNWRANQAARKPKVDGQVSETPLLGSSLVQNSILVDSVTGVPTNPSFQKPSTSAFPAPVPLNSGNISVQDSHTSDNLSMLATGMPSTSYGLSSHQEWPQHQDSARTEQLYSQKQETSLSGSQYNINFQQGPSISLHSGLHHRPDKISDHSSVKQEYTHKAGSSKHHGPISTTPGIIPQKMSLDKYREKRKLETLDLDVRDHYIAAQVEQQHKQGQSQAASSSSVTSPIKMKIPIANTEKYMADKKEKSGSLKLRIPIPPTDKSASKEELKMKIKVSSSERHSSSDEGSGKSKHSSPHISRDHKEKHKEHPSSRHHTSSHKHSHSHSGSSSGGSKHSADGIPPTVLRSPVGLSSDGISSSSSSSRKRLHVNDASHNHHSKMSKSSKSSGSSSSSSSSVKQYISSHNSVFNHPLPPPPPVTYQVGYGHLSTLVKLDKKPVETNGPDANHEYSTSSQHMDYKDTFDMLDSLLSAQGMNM
# [5] = target: T1, Cyclin-dependent kinase 9; assay: Induction of Hyt-mediated degradation of CDK9 in human 22Rv1 cells assessed as downregulation of CDK9 level at 2 uM incubated for 24 hrs by DIA-based proteomics analysis; assay type: cell-based
# [6] = target: Glycogen synthase kinase-3 alpha (Homo sapiens) (UniProt P49840); assay: Induction of Hyt-mediated degradation of GSK3A in human 22Rv1 cells assessed as downregulation of GSK3A protein level at 2 uM incubated for 24 hrs by DIA-based proteomics analysis; assay type: cell-based
# Glycogen synthase kinase-3 alpha (Homo sapiens), sequence (P49840 2-483 limits assumed): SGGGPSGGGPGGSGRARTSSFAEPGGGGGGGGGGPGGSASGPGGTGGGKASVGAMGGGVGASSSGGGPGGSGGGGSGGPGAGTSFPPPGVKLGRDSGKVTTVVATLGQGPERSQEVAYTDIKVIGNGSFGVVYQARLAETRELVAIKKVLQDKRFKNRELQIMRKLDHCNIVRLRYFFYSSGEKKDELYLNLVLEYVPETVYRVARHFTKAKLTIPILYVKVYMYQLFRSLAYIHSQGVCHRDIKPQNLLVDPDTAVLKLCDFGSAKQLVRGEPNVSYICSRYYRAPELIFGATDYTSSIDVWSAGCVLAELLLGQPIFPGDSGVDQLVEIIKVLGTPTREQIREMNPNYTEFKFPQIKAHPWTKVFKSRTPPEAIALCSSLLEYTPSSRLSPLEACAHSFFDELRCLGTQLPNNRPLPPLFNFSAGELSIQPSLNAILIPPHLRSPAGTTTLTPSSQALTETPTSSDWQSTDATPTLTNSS
# [7] = target: T1, Cyclin-dependent kinase 9; assay: Induction of Flag-tagged CDK9 (unknown origin) polyubiquitination expressed in HEK293T cells co-transfected with HA-tagged Cyclin T1 and Myc ubiquitin assessed as increase in K48-linkage poly-ubiqutinated CDK9 level at 1 to 2 uM incubated for 20 hrs by immunoprecipitation analysis; assay type: cell-based; details: dose 1-2 µM
# [8] = target: T2, Cyclin-T1; assay: Induction of HA-tagged Cyclin T1 (unknown origin) polyubiquitination expressed in HEK293T cells co-transfected with Flag-tagged CDK9 and Myc ubiquitin assessed as increase in K48-linkage poly-ubiqutinated Cyclin T1 level at 1 to 2 uM incubated for 20 hrs by immunoprecipitation analysis; assay type: cell-based; details: dose 1-2 µM
# [9] = target: T1, Cyclin-dependent kinase 9; assay: Induction of Flag-tagged CDK9 (unknown origin) polyubiquitination expressed in HEK293T cells co-transfected with HA-tagged Cyclin T1 and Myc ubiquitin assessed as increase in K48-linkage poly-ubiqutinated CDK9 level at 1 to 2 uM incubated for 20 hrs by western blot analysis; assay type: cell-based; details: dose 1-2 µM
# [10] = target: T2, Cyclin-T1; assay: Induction of HA-tagged Cyclin T1 (unknown origin) polyubiquitination expressed in HEK293T cells co-transfected with Flag-tagged CDK9 and Myc ubiquitin assessed as increase in K48-linkage poly-ubiqutinated Cyclin T1 level at 1 to 2 uM incubated for 20 hrs by western blot analysis; assay type: cell-based; details: dose 1-2 µM
# [11] = target: T2, Cyclin-T1; assay: Induction of HyT-mediated degradation of Cyclin T1 in human 22Rv1 cells at 3 uM measured for 36 hrs by DIA-based proteomics analysis; assay type: cell-based
# [12] = target: Cyclin-dependent kinase 1 (Homo sapiens) (UniProt P06493); assay: Induction of CDK1 degradation in human 22Rv1 cells assessed as downregulation of CDK1 level at 3 uM measured after 12 hrs by DIA-based proteomics analysis; assay type: cell-based
# Cyclin-dependent kinase 1 (Homo sapiens), sequence (P06493 whole entry, looked up): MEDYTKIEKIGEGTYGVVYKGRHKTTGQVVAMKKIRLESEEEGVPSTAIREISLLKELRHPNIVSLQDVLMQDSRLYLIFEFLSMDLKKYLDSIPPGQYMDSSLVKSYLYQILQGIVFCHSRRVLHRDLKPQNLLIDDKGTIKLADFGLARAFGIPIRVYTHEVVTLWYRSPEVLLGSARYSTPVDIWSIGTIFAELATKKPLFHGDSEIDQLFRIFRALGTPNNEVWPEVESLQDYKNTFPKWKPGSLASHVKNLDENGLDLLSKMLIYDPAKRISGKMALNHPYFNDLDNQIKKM
# [13] = target: Cyclin-dependent kinase 7 (Homo sapiens) (UniProt P50613); assay: Induction of CDK7 degradation in human 22Rv1 cells assessed as downregulation of CDK7 level at 3 uM measured after 12 hrs by DIA-based proteomics analysis; assay type: cell-based
# Cyclin-dependent kinase 7 (Homo sapiens), sequence (P50613 whole entry): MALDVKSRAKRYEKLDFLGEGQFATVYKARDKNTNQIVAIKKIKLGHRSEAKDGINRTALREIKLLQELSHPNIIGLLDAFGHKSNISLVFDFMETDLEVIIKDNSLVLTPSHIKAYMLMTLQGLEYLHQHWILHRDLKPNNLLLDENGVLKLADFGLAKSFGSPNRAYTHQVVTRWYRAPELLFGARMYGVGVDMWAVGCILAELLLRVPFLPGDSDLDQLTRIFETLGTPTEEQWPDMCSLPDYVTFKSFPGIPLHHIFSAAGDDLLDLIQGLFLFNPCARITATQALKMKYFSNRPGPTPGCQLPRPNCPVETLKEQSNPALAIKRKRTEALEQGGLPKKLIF
# [14] = test system: CWR22R; assay: Downregulation of CDK6 level in human 22Rv1 cells at 3 uM measured after 12 hrs by DIA-based proteomics analysis; assay type: functional, cell-based
# [15] = target: T3, CDK9/cyclin T1 (Homo sapiens) (UniProt O60563+P50750); assay: Induction of CDK9/Cyclin T1 degradation in human 22Rv1 cells assessed as decrease in cyclin A2 protein expression at 3 uM measured for 36 hrs by DIA-based proteomics analysis; assay type: cell-based
# [16] = target: T3, CDK9/cyclin T1 (Homo sapiens); assay: Induction of CDK9/Cyclin T1 degradation in human 22Rv1 cells assessed as decrease in cyclin B1 protein expression at 3 uM measured for 36 hrs by DIA-based proteomics analysis; assay type: cell-based
# [17] = target: T3, CDK9/cyclin T1 (Homo sapiens); assay: Induction of CDK9/Cyclin T1 degradation in human 22Rv1 cells assessed as decrease in cyclin D1 protein expression at 3 uM measured for 36 hrs by DIA-based proteomics analysis; assay type: cell-based
# [18] = target: T3, CDK9/cyclin T1 (Homo sapiens); assay: Induction of CDK9/Cyclin T1 degradation in human 22Rv1 cells assessed as downregulation of JMJD6 protein expression at 3 uM measured after 36 hrs by DIA-based proteomics analysis; assay type: cell-based
# [19] = target: T3, CDK9/cyclin T1 (Homo sapiens); assay: Induction of CDK9/Cyclin T1 degradation in human 22Rv1 cells assessed as downregulation of JMJD6 protein expression at 2 uM measured after 24 hrs by immunoblot analysis; assay type: cell-based
# [20] = target: T3, CDK9/cyclin T1 (Homo sapiens); assay: Induction of CDK9/Cyclin T1 degradation in human 22Rv1 cells assessed as downregulation of AR protein expression at 2 uM measured after 48 hrs by immunoblot analysis relative to control; assay type: cell-based
# [21] = target: T3, CDK9/cyclin T1 (Homo sapiens); assay: Induction of CDK9/Cyclin T1 degradation in human 22Rv1 cells assessed as downregulation of AR-V7 splice variant protein expression at 2 uM measured after 48 hrs by immunoblot analysis relative to control; assay type: cell-based
# [22] = test system: CWR22R; assay: Induction of cell cycle arrest in human 22Rv1 cells assessed as accumulation of cells at G1 phase at 0.3 to 1 uM incubated for 24 hrs by propidium iodide staining based flow cytometry; assay type: functional; details: dose 0.3-1 µM
# [23] = test system: CWR22R; assay: Induction of apoptosis in human 22Rv1 cells at 0.3 to 1 uM incubated for 24 hrs by AnnexinV-FITC/PI staining based flow cytometry; assay type: functional, cell-based; details: dose 0.3-1 µM
# [24] = target: T3, CDK9/cyclin T1 (Homo sapiens); assay: Induction of CDK9/Cyclin T1 degradation in human 22Rv1 cells assessed as downregulation of NKX3-1 protein expression at 0.3 to 3 uM incubated fo 24 hrs by immunoblot analysis; assay type: cell-based; details: dose 0.3-3 µM
# [25] = target: T3, CDK9/cyclin T1 (Homo sapiens); assay: Induction of CDK9/Cyclin T1 degradation in human 22Rv1 cells assessed as downregulation of NKX3-1 gene expression at 2 uM incubated for 24 hrs by RNA-Seq based analysis; assay type: cell-based
# [26] = target: T3, CDK9/cyclin T1 (Homo sapiens); assay: Induction of CDK9/Cyclin T1 degradation in human 22Rv1 cells assessed as downregulation of CDK20 gene expression at 2 uM incubated for 24 hrs by RNA-Seq based analysis; assay type: cell-based
# [27] = target: T3, CDK9/cyclin T1 (Homo sapiens); assay: Induction of CDK9/Cyclin T1 degradation in human 22Rv1 cells assessed as downregulation of CDC6 gene expression at 2 uM incubated for 24 hrs by RNA-Seq based analysis; assay type: cell-based
# [28] = target: T3, CDK9/cyclin T1 (Homo sapiens); assay: Induction of CDK9/Cyclin T1 degradation in human 22Rv1 cells assessed as downregulation of KLK1 gene expression at 2 uM incubated for 24 hrs by RNA-Seq based analysis; assay type: cell-based
# [29] = target: T3, CDK9/cyclin T1 (Homo sapiens); assay: Induction of CDK9/Cyclin T1 degradation in human 22Rv1 cells assessed as downregulation of IKBKE gene expression at 2 uM incubated for 24 hrs by RNA-Seq based analysis; assay type: cell-based
# [30] = target: T3, CDK9/cyclin T1 (Homo sapiens); assay: Induction of CDK9/Cyclin T1 degradation in human 22Rv1 cells assessed as downregulation of CCNE2 gene expression at 2 uM incubated for 24 hrs by RNA-Seq based analysis; assay type: cell-based
# [31] = target: T3, CDK9/cyclin T1 (Homo sapiens); assay: Induction of CDK9/Cyclin T1 degradation in human 22Rv1 cells assessed as downregulation of TP53 gene expression at 2 uM incubated for 24 hrs by RNA-Seq based analysis; assay type: cell-based
# T1 sequence (P50750 whole entry): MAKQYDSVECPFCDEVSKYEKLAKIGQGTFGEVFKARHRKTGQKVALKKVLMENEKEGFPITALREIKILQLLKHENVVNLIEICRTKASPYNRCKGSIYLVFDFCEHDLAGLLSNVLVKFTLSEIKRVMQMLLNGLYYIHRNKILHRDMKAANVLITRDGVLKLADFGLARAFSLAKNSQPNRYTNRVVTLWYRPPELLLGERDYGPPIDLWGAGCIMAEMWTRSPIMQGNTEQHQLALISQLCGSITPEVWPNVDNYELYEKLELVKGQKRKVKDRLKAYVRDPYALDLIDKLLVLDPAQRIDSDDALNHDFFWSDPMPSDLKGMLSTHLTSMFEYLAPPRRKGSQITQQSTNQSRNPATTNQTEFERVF
smiles,measurement,setting,value
CC(C)[C@@H]1CC[C@@H](C)C[C@H]1OCC(=O)NCCS(=O)(=O)N1CCC(C(=O)Nc2ncc(SCc3ncc(C(C)(C)C)o3)s2)CC1,Activity,[1],Active
same,Activity,[2],Active
same,DC50,[3],589 nM
same,Activity,[4],Active
same,Activity,[5],Active
same,Activity,[6],Active
same,Activity,[7],Active
same,Activity,[8],Active
same,Activity,[9],Active
same,Activity,[10],Active
same,Activity,[11],Active
same,Activity,[12],Active
same,Activity,[13],Active
same,inhibition,[14],Active
same,Activity,[15],Active
same,Activity,[16],Active
same,Activity,[17],Active
same,Activity,[18],Active
same,Activity,[19],Active
same,Activity,[20],100%
same,Activity,[21],100%
same,Activity,[22],Active
same,Activity,[23],Active
same,Activity,[24],Active
same,Activity,[25],Active
same,Activity,[26],Active
same,Activity,[27],Active
same,Activity,[28],Active
same,Activity,[29],Active
same,Activity,[30],Active
same,Activity,[31],Active

# Reference: ChEMBL document CHEMBL5113511, “Discovery of Small-Molecule Degraders of the CDK9-Cyclin T1 Complex for Targeting Transcriptional Addiction in Prostate Cancer” (J Med Chem, 2022)
